This note sets out measurements from patent US12263248B2, “Compounds and compositions for intracellular delivery of therapeutic agents” (ModernaTX, Inc., priority 2018, dated 2025).

The structures appear in SMILES notation. Marks after values point to notes of the source that are not given here. Where only a bound is given, the exact number is not on record here.

A short description of data set [1]: Lipid clearance: lipid level in mouse liver tissue (LC-MS/MS). It is filed as in vivo.
Procedure: Quantification of Lipid by LC-MS/MS: Liver samples were homogenized following addition of 19 eq. (w/v) of water (DF=20). Protein was precipitated and analyzed against calibration standards prepared in matching blank. Chromatographic separation and quantification was accomplished with a LC-MS/MS System. Samples were injected and separated via HPLC A triple-quadrupole MS/MS system operated in positive ion mode was used for signal detection.
Data set [2] concerns hEPO mRNA. The data set is described as follows: hEPO expression after intravenous administration to rats. It is filed as in vivo, rat. Particulars: for Lipid/MC3 hEPO expression: 6 hours after administration; for hEPO expression / hEPO expression 0.25 h / hEPO expression 0.5 h / hEPO expression 1 h / hEPO expression 2 h / hEPO expression 4 h / hEPO expression 8 h / hEPO expression 24 h / hEPO expression 48 h: rat; for hEPO expression: 6 h, i.v.; for hEPO expression / Lipid/MC3 hEPO conc. ratio 2 mpk: 2 mpk. The method, boiled down: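 Rats dosed intravenously once with nanoparticle composition, 0.2 or 2.0 mpk, formulated by the standard MC3 method. Tail-vein blood sampled at 6 h or at time points from 0.25 to 48 h. hEPO measured by ELISA.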

A short description of data set [3]: Chemical stability of lipids in ethanol (lipid purity). It is filed as physicochemical. How it is done:
Ester linkages were previously reported to trigger metabolism by esterases in vivo. (See Fukami, T. et al. Drug Metab. Pharmacokinet. 2012, 27, 466-477, the content of which is incorporated by reference herein in its entirety). […] (See Maier M. A., Mol. Ther. 2013, 21, 1570-1578, the content of which is incorporated herein in its entirety) First, the chemical stability of the lipids was evaluated by measuring ethanol stability at room temperature and 37° C. (Table 39). […] LNPs formed with compound 138 were larger, with a surface pKa>7. […] Removal of one ester function (compound 136) afforded LNPs with improved physiochemical characteristics and lower LNP surface pKa.

Data set [4] in a line: Residual lipid levels in rat liver and spleen (UPLC-MS). It is filed as in vivo. To be noted: for % dose remaining Rat liver tissue, 48 h: Sprague Dawley rat liver 48 h after 2 mg/kg bolus dose mRNA; for % Lipid Remaining in liver, 48 h: 2 mpk, assuming 300 g rat and 15 g liver; for % remaining dose in liver, 48 h: intravenous, 2.0 mpk. Summed up: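 Rats received a single intravenous dose of lipid nanoparticle composition, and liver tissue was later collected to quantify residual lipid. Weighed tissue was homogenized in Milli-Q water (900 μL per 100 mg tissue) using an Omni probe homogenizer. 50 μL aliquots were mixed with 400 μL spiking solution, vortexed, centrifuged, and analyzed by UPLC on a C8 column with positive-mode ESI detection on a Sciex API5500 mass spectrometer.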

For data set [5], the system named is hEPO mRNA. The data set is described as follows: hEPO expression after subcutaneous administration to mice. It is filed as in vivo, female CD-1 mice. The method, boiled down:
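Lipid nanoparticle formulations carrying hEPO or luciferase mRNA were given subcutaneously at 0.5 mpk to female CD-1 mice. Whole-body luminescence imaging was done at 3, 6 and 24 h. Liver, spleen and injection-site expression were assessed ex vivo at 24 h.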

On to `CCCCCCCCCOC(=O)CCCCCCCN(CCO)CCCCCCCC(=O)OC(CCCCCCCC)CCCCCCCC` [Compound 18, Heptadecan-9-yl 8-((2-hydroxyethyl)(8-(nonyloxy)-8-oxooctyl)amino)octanoate], for which the “% dose remaining Mouse liver tissue, 24 h” value in data set [1] (CD-1 mouse liver 24 h after 0.5 mg/kg bolus dose mRNA, n = 5 ± S.D.) came to 0%. The “original dose remaining in liver tissue 24 hours post dose” value in data set [1] (mice, intravenous) is “no lipid detected”. In addition, the “Lipid/MC3 hEPO expression” value in the data set with hEPO mRNA [2] (2 mpk dose to rat) was determined as 0.81. Moreover, the “hEPO expression” value with hEPO mRNA [2] was 9.96e+06 pg/mL. In the data set on hEPO mRNA [2] (intravenous, 0.2 mpk), the “hEPO expression 0.25 h” value was 20227 pg/mL, the “hEPO expression 0.5 h” value is given as 20743 pg/mL, the “hEPO expression 1 h” value worked out at 194353 pg/mL and the “hEPO expression 2 h” value came out at 238107 pg/mL. Also, in the data set with hEPO mRNA [2] (intravenous, 0.2 mpk), the “hEPO expression 4 h” value came to 514807 pg/mL, the “hEPO expression 8 h” value amounted to 915320 pg/mL, the “hEPO expression 24 h” value is 412051 pg/mL and the “hEPO expression 48 h” value came to 52361 pg/mL. Besides, the “Lipid/MC3 hEPO conc. ratio 2 mpk” value with hEPO mRNA [2] (rats, intravenous, 6 hours) was 0.81. Moreover, the “Lipid Purity” value in data set [3] (t = 0) was 94.37%. Besides, the “Lipid Purity” value in data set [3] (t = 96 h, 25° C.) came to 94.71%. For the same compound, the “Lipid Purity” value in data set [3] (t = 96 h, 37° C.) is on record as 95.01%. In data set [4], the “% dose remaining Rat liver tissue, 48 h” value is recorded as 0.02^e % and the “% lipid remaining in liver after 48 hours” value was 0.018%. Moreover, in data set [4] (rats), the “% Lipid Remaining in liver, 48 h” value is listed as 0.018% and the “% remaining dose in liver, 48 h” value was below 1%. The “hEPO expression Lipid/MC3 ratio, 6 hr.” value with hEPO mRNA [5] (0.5 mpk, 6 hr.) is given as 2.63. Further, the “hEPO expression Lipid/MC3 ratio, AUC” value in the data set on hEPO mRNA [5] (0.5 mpk, AUC) was found to be 1.88.
`CCCCCCCCCCCOC(=O)CCCCCN(CCO)CCCCCCCC(=O)OC(CCCCCCCC)CCCCCCCC` [Compound 25, Heptadecan-9-yl 8-((2-hydroxyethyl)(6-oxo-6-(undecyloxy)hexyl)amino)octanoate]: the “Lipid/MC3 hEPO expression” value with hEPO mRNA [2] (0.2 mpk dose to rat) was determined as 2.41. Besides, the “Lipid/MC3 hEPO expression” value in the data set with hEPO mRNA [2] (2 mpk dose to rat) came out at 2.13. Moreover, the “hEPO expression” value with hEPO mRNA [2] amounted to 3.05e+07 pg/mL. Also, in the data set on hEPO mRNA [2] (intravenous, 0.2 mpk), the “hEPO expression 0.25 h” value worked out at 0 pg/mL, the “hEPO expression 0.5 h” value was 19553 pg/mL, the “hEPO expression 1 h” value came out at 434299 pg/mL and the “hEPO expression 2 h” value is on record as 2042807 pg/mL. In addition, in the data set with hEPO mRNA [2] (intravenous, 0.2 mpk), the “hEPO expression 4 h” value is reported as 3176560 pg/mL, the “hEPO expression 8 h” value is 2631633 pg/mL, the “hEPO expression 24 h” value was 869374 pg/mL and the “hEPO expression 48 h” value worked out at 103089 pg/mL. In addition, in the data set with hEPO mRNA [2] (rats, intravenous, 0.2 mpk, 6 hours), the “Lipid/MC3 hEPO conc. ratio 0.2 mpk” value was determined as 2.41. Also, the “Lipid/MC3 hEPO conc. ratio 2 mpk” value in the data set with hEPO mRNA [2] (rats, intravenous, 6 hours) turned out to be 2.13. In data set [3] (t = 0), the “Lipid Purity” value is on record as 95.58%. The “Lipid Purity” value in data set [3] (t = 96 h, 25° C.) is given as 96.23%. Further, in data set [3] (t = 96 h, 37° C.), the “Lipid Purity” value was determined as 96.13%. In addition, in data set [4], the “% dose remaining Rat liver tissue, 48 h” value is 1.3^e % and the “% lipid remaining in liver after 48 hours” value was found to be 1.32%. Further, in data set [4] (rats), the “% Lipid Remaining in liver, 48 h” value is 1.32% and the “% remaining dose in liver, 48 h” value is reported as 1.3%. The “Novel lipid/MC3 expression ratio, 6 hr. time point, s.c. hEPO 0.5 mpk” value in the data set on hEPO mRNA [5] (relative to MC3) worked out at 5.43.
Regarding `CCCCCCCCCOC(=O)CCCN(CCO)CCCCCCCC(=O)OC(CCCCCCCC)CCCCCCCC` [Compound 26, Heptadecan-9-yl 8-((2-hydroxyethyl)(4-(nonyloxy)-4-oxobutyl)amino) octanoate], the “Lipid/MC3 hEPO expression” value in the data set with hEPO mRNA [2] (2 mpk dose to rat) is 4.95. Further, in the data set on hEPO mRNA [2] (rats, intravenous, 6 hours), the “Lipid/MC3 hEPO conc. ratio 2 mpk” value was 4.95. Further, the “Lipid Purity” value in data set [3] (t = 0) is given as 98.64%; in data set [3] (t = 96 h, 25° C.), 97.38%; in data set [3] (t = 96 h, 37° C.) it was 95.72%. Besides, the “% dose remaining Rat liver tissue, 48 h” value in data set [4] was 20 ± 4.0^f %. Besides, the “parent amino lipid levels in the liver” value in data set [4] (Sprague Dawley rats, 48 h post dose) is 20%. For the same compound, the “% lipid remaining in liver after 48 hours” value in data set [4] was found to be 20%. In data set [4] (rats), the “% Lipid Remaining in liver, 48 h” value turned out to be 20%. For the same compound, the “lipid levels in the liver after 48 hours” value in data set [4] (rats, i.v., dose response study) is “about 19%”.
